Source: patent US20260083704A1, “LXR MODULATORS WITH BICYCLIC CORE MOIETY FOR TREATING DYSLIPIDEMIAS” (OrsoBio, Inc., priority 2022, published 2026)

What was measured:
[1] = target: T1, GST-LXRβ ligand-binding domain (Homo sapiens, UniProt P55055); assay: TR-FRETβ activity assay (NCoA3 coactivator peptide recruitment); type: biochemical; conditions: 1 μM 24(S)-25-epoxycholesterol prestimulation
T1 construct: amino acids 156-461; NP009052; made in house; host or cells: E. coli
T1 sequence (P55055 156-460 limits assumed): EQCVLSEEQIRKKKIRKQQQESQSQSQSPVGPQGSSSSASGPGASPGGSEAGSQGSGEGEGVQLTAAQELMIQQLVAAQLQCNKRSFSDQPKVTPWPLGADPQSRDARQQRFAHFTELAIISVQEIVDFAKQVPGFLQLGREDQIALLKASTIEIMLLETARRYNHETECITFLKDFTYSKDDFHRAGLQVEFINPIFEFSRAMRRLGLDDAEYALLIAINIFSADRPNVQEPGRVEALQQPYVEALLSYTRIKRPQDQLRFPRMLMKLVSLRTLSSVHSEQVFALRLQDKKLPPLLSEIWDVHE
In short: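 Inverse-agonist format, with LXR prestimulated by 1 μM 24(S)-25-epoxycholesterol in pH 6.8 Tris/HCl, 240 mM KCl, BSA and Triton. Ten concentrations from 50 μM to 0.002 μM were equilibrated 1 h at 4° C with 76 nM GST-LXRβ LBD and 400 nM biotin-NCoA3 peptide. Peptide recruitment detected by 665/615 nm TR-FRET.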

[2] = tested on: LXR target genes (Scd1, Fas, Srebp1) in liver; assay: Short term HFD mouse model: gene expression in liver tissue; type: in vivo; conditions: HFD mice, expression normalized to Tbp; for response vs control in vivo at 20 mg/kg / response vs control in vivo at 10 mg/kg: Mus musculus, 4 h, read-out: Scd1 suppresion compared to vehicle
Experimental: The in vivo transcriptional regulation of several LXR target genes by LXR modulators was assessed in mice.
For this, C57BL/6J were purchased from Elevage Janvier (Rennes, France) at the age of 8 weeks. After an acclimation period of two weeks, animals were prefed on a high fat diet (HFD) (Ssniff Spezialdiäten GmbH, Germany, Surwit EF D12330 mod, Cat. No. E15771-34), with 60 kcal % from fat plus 1% (w/w) extra cholesterol (Sigma-Aldrich, St. Louis, MO) for 5 days. Animals were maintained on this diet during treatment with LXR modulators. The test compounds were formulated in 0.5% hydroxypropylmethylcellulose (HPMC) and administered in three doses (from 1.5 to 20 mg/kg each) by oral gavage according to the following schedule: on day one, animals received treatment in the morning and the evening (ca. 17:00), on day two animals received the final treatment in the morning after a 4 h fast and were sacrificed 4 h thereafter. Animal work was conducted according to the national guidelines for animal care in Germany.
Analysis of gene expression in liver tissue. To obtain total RNA from frozen liver tissue, samples (25 mg liver tissue) were first homogenized with RLA buffer (4M guanidin thiocyanate, 10 mM Tris, 0.97% w:v β-mercapto-ethanol). RNA was prepared using a SV 96 total RNA Isolation system (Promega, Madison, Wisconsin, USA) following the manufacturer's instructions. cDNAs were synthesized from 0.8-1 μg of total RNA using All-in-One cDNA Supermix reverse transcriptase (Absource Diagnostics, Munich, Germany). Quantitative PCR was performed and analyzed using Prime time Gene expression master mix (Integrated DNA Technologies, Coralville, Iowa, USA) and a 384-format ABI 7900HT Sequence Detection System (Applied Biosystems, Foster City, USA). The expression of the following genes was analysed: Stearoyl-CoA desaturase1 (Scd1), fatty acid synthase (Fas) and sterol regulatory element-binding protein1 (Srebp1). Specific primer and probe sequences (commercially available) are listed in Table 3. qPCR was conducted at 95° C. for 3 min, followed by 40 cycles of 95° C. for 15 s and 60° C. for 30 s. All samples were run in duplicates from the same RT-reaction. Gene expression was expressed in arbitrary units and normalized relative to the mRNA of the housekeeping gene TATA box binding protein (Tbp) using the comparative Ct method.

SMILES	EC50 [1] [µM]	Fasn suppression compared to vehicle ([2]; three oral doses of 20 mg/kg)	Srebp1c suppr. compared to vehicle ([2]; three oral doses of 20 mg/kg)	response vs control in vivo at 20 mg/kg ([2]; three oral doses of 20 mg/kg) [%]	Srebp1c suppr. compared to vehicle ([2]; three oral doses of 10 mg/kg)	response vs control in vivo at 10 mg/kg ([2]; three oral doses of 10 mg/kg) [%]	Fasn suppression compared to vehicle ([2]; three oral doses of 10 mg/kg)
N#Cc1ccccc1-c1c(-c2cccc(-c3ccc(C(=O)O)cc3Cl)c2)n(S(=O)(=O)c2ccc(C(F)F)cc2)c2cnccc12 [11/49]	< 0.1	C (0.3 to ≤0.6)	C (0.3 to ≤0.6)	< 30	–	–	–
N#Cc1cccc(C#N)c1-c1c(-c2cccc([C@H]3CC[C@H](C(=O)O)CC3)c2)n(S(=O)(=O)c2ccc(C(F)F)cc2)c2ccc(F)cc12 [11/62]	0.1 to 1	–	–	–	D (<0.3)	< 30	–
O=C(O)c1ccc(-c2cccc(-c3c(-c4ncccc4C(F)(F)F)c4cc(F)ccc4n3S(=O)(=O)c3ccc(C(F)F)cc3)c2)c(Cl)c1 [11/23]	< 0.1	C (0.3 to ≤0.6)	–	< 30	–	–	–
Cc1ccc(S(=O)(=O)n2c(-c3cccc(-c4ccc(C(=O)O)cc4)c3)c(-c3ccsc3C#N)c3cc(F)ccc32)cc1 [5/3]	0.1 to 1	D (<0.3)	–	30 to 60	–	–	–
Cc1ccc(S(=O)(=O)n2c(-c3cccc(-c4ccc(C(=O)O)cc4Cl)c3)c(-c3ccsc3C#N)c3cc(F)ccc32)cc1 [3/48]	0.1 to 1	–	D (<0.3)	< 30	–	–	–
N#Cc1cccc(C#N)c1-c1c(-c2cccc(-c3ccc(C(=O)O)cc3F)c2)n(S(=O)(=O)c2ccc(C(F)F)cc2)c2ccc(F)cc12 [11/51]	< 0.1	–	–	–	D (<0.3)	< 30	–
COc1c(C(=O)O)ccc(-c2cccc(-c3c(-c4ccccc4C#N)c4cc(F)ccc4n3S(=O)(=O)c3ccc(C(F)F)cc3)c2)c1Cl [11/27]	< 0.1	C (0.3 to ≤0.6)	A (>0.9)	< 30	–	–	–
N#Cc1cccc(C#N)c1-c1c(-c2cccc(-c3ccc(C(=O)O)cc3Cl)c2)n(S(=O)(=O)c2ccc(C(F)F)cc2)c2ccc(F)cc12 [11/12]	< 0.1	C (0.3 to ≤0.6)	–	< 30	–	–	–
N#Cc1cccc(C#N)c1-c1c(-c2cccc(-c3c(F)cc(C(=O)O)cc3F)c2)n(S(=O)(=O)c2ccc(C(F)F)cc2)c2ccc(F)cc12 [11/53]	< 0.1	–	–	–	D (<0.3)	< 30	–
N#Cc1nccnc1-c1c(-c2cccc(-c3cc(F)c(C(=O)O)cc3Cl)c2)n(S(=O)(=O)c2ccc(C(F)F)cc2)c2ccc(F)cc12 [11/11]	< 0.1	C (0.3 to ≤0.6)	–	< 30	–	–	–
N#Cc1cccc(C#N)c1-c1c(-c2cccc(-c3ccc(C(=O)O)cc3Cl)c2)n(S(=O)(=O)c2ccc(C(F)(F)F)nc2)c2ccc(F)cc12 [11/37]	< 0.1	–	–	–	D (<0.3)	< 30	–
O=C(O)c1ccc(-c2cccc(-c3c(-c4ccccc4C4COC4)c4cc(F)ccc4n3S(=O)(=O)c3ccc(C(F)F)cc3)c2)c(Cl)c1 [3/59]	< 0.1	–	D (<0.3)	30 to 60	–	–	–
CS(=O)(=O)NC(=O)c1ccc(-c2cccc(-c3c(-c4c(C#N)cccc4C#N)c4cc(F)ccc4n3S(=O)(=O)c3ccc(C(F)F)cc3)c2)c(Cl)c1 [32/5]	< 0.1	–	–	–	C (0.3 to ≤0.6)	30 to 60	–
N#Cc1cccc(C#N)c1-c1c(-c2cccc(-c3cc(F)c(C(=O)O)cc3Cl)c2)n(S(=O)(=O)c2ccc(C(F)F)cc2)c2ccc(F)cc12 [11/65]	< 0.1	–	–	–	D (<0.3)	< 30	–
Cc1ccc(S(=O)(=O)n2c(-c3cccc(C45CCC(C(=O)O)(CC4)CC5)c3)c(-c3ccsc3C#N)c3cc(F)ccc32)cc1 [3/64]	0.1 to 1	B (0.6 to ≤0.9)	B (0.6 to ≤0.9)	< 30	–	–	–
N#Cc1cccc(C#N)c1-c1c(-c2cccc(-c3ccc(C(=O)O)cc3Cl)c2)n(S(=O)(=O)C2CCC(F)(F)CC2)c2ccc(F)cc12 [11/63]	0.1 to 1	–	–	–	D (<0.3)	30 to 60	–
N#Cc1cccc(C#N)c1-c1c(-c2cccc(-c3ccc(C(=O)NCC(=O)O)cc3Cl)c2)n(S(=O)(=O)c2ccc(C(F)F)cc2)c2ccc(F)cc12 [Compound 21/3]	< 0.1	–	–	–	–	< 30	C (0.3 to ≤0.6)
Cc1ccc(S(=O)(=O)n2c(-c3cccc(-c4ccc(C(=O)O)cc4)c3)c(-c3ccsc3C#N)c3cc(F)ccc32)cc1C [23/2]	0.1 to 1	C (0.3 to ≤0.6)	–	< 30	–	–	–
O=C(O)c1ccc(-c2cccc(-c3c(-c4c(Cl)cccc4Cl)c4cc(F)ccc4n3S(=O)(=O)c3ccc(C(F)F)cc3)c2)c(Cl)c1 [11/13]	< 0.1	C (0.3 to ≤0.6)	–	< 30	–	–	–
CC(=O)NS(=O)(=O)c1ccc(-c2cccc(-c3c(-c4c(C#N)cccc4C#N)c4cc(F)ccc4n3S(=O)(=O)c3ccc(C(F)F)cc3)c2)c(Cl)c1 [8/8]	< 0.1	–	–	–	D (<0.3)	< 30	–
N#Cc1sccc1-c1c(-c2cccc(-c3ccc(C(=O)O)cc3Cl)c2)n(S(=O)(=O)c2ccc(C(F)(F)F)nc2)c2ccc(F)cc12 [11/16]	0.1 to 1	A (>0.9)	B (0.6 to ≤0.9)	30 to 60	–	–	–
N#Cc1cccc(C#N)c1-c1c(-c2cccc(-c3ccc(C(=O)NCCS(=O)(=O)O)cc3Cl)c2)n(S(=O)(=O)c2ccc(C(F)F)cc2)c2ccc(F)cc12 [10/1]	< 0.1	–	–	–	D (<0.3)	< 30	–
N#Cc1cccnc1-c1c(-c2cccc(-c3ccc(C(=O)O)cc3Cl)c2)n(S(=O)(=O)c2ccc(C(F)F)cc2)c2ccc(F)cc12 [11/26]	< 0.1	–	–	–	D (<0.3)	30 to 60	D (<0.3)
N#Cc1cccc(C#N)c1-c1c(-c2cccc(-c3c(F)cc(CC(=O)O)cc3F)c2)n(S(=O)(=O)c2ccc(C(F)F)cc2)c2ccc(F)cc12 [3/73]	< 0.1	–	–	–	–	< 30	A (>0.9)
N#Cc1sccc1-c1c(-c2cccc(-c3ccc(C(=O)O)cc3Cl)c2)n(S(=O)(=O)c2ccc(C(F)F)cc2)c2ccc(F)cc12 [11/17]	< 0.1	C (0.3 to ≤0.6)	–	< 30	–	–	–
CN(CCS(=O)(=O)O)C(=O)c1ccc(-c2cccc(-c3c(-c4c(C#N)cccc4C#N)c4cc(F)ccc4n3S(=O)(=O)c3ccc(C(F)F)cc3)c2)c(Cl)c1 [10/2]	< 0.1	–	–	–	C (0.3 to ≤0.6)	30 to 60	–
N#Cc1ccccc1-c1c(-c2cccc(-c3ccc(C(=O)O)cc3Cl)c2)n(S(=O)(=O)c2ccc(C(F)F)cc2)c2ccc(F)cc12 [11/33]	< 0.1	B (0.6 to ≤0.9)	–	< 30	–	–	–
